# Test results: patent US11098040B2, “Compounds and methods of use” (Ferro Therapeutics, Inc., priority 2018, dated 2021)
# System: KP4
# Test: Cell viability assay (CellTiter Glo), pancreatic ductal adenocarcinoma KP4
# Type: cell-based, human
# Details: Homo sapiens, KP-4, 96 h, pancreatic cancer cell line KP4, 96 hours, CellTiter Glo; read-out: IC50 μM KP4
# Procedure: (§1) Cell viability assay was performed to assess the potency of the compounds in human cancer cell lines KP4 (pancreatic ductal adenocarcinoma), MiaPaCa-2 (pancreatic carcinoma), AsPC-1 (pancreatic adenocarcinoma, ascites), 143B (osteosarcoma), and SJSA-1 (osteosarcoma). Selected compounds were also assayed in a human breast epithelial cell line MCF-10A, a nontumorigenic cell line as a control to assess differential activity. Cells at a density of 500-5,000 cells/well were seeded in 96-well plates and incubated at 37° C. overnight. A series of 9 different concentrations of compound stocks (500×) were created by 3-fold serial dilution in DMSO. These compounds were further diluted in culture media and then added to cells so that the final DMSO concentration was equal to 0.25% or less. After 96 hours of incubation, 50 μL of CellTiter Glo reagent (Promega) was added to each well and luminescence was measured after 10 minutes using EnVision (PerkinElmer). Compounds titrated from top concentration of up to 30 μM. The select compounds were tested initially from 30 μM as the top concentration in duplicates (range of 4.6 nM-30 μM). […] Luminescence from cells treated with DMSO alone was set as Max and % of inhibition was calculated as follows: Inhibition %=(Max-Sample value)/Max*100. Data was analyzed using XL-fit software (ID Business Solutions Ltd.). IC50, relative IC50, or % of top inhibition was calculated.
# as §1, with “in” for “in human”, “line” for “lines”, “adenocarcinoma).” for “adenocarcinoma), MiaPaCa-2 (pancreatic carcinoma), AsPC-1 (pancreatic adenocarcinoma, ascites), 143B (osteosarcoma), and SJSA-1 (osteosarcoma). Selected compounds were also assayed in a human breast epithelial cell line MCF-10A, a nontumorigenic cell line as a control to assess differential activity.”, “1,000-10,000” for “500-5,000”, “All” for “Compounds titrated from top concentration of up to 30 μM. The select”
# (§2) The results of the assay on stability in blood and IC50 values for pancreatic cancer cell line KP4 are given below in Table 24.
row,IC50 [µM],Structure (SMILES)
1,> 1,COC(=O)[C@H]1Cc2c([nH]c3ccccc23)[C@H](c2ccc(C(=O)O)cc2)N1C(=O)CCl [Compound 4]
2,0.01 to 0.1,COC(=O)[C@H]1Cc2c([nH]c3ccccc23)[C@H](c2ccc(C(=O)OC[C@]34C[C@H]5C[C@H](C[C@H](C5)C3)C4)cc2)N1C(=O)CCl [Compound 6]
3,0.01 to 0.1,CNC(=O)c1ccc([C@H]2c3[nH]c4ccccc4c3C[C@H](C(=O)OC)N2C(=O)CCl)cc1 [Compound 7]

# The remaining lines, values behind:
row,Structure (SMILES),IC50 [µM]
1,O=C(O)c1ccc([C@H]2c3[nH]c4ccccc4c3C[C@H](C(=O)O)N2C(=O)CCl)cc1 [Compound 5],> 1
2,COC(=O)[C@H]1Cc2c([nH]c3ccccc23)[C@H](c2ccc(C(=O)N(C)C)cc2)N1C(=O)CCl [Compound 8],< 0.01

# System: not listed separately
# Test: Whole blood stability, mouse
# Type: in vitro ADME
# Details: 0 min
# Excerpt: as §2
row,Whole Blood Stability % Remaining at 37° C. Mouse [%],Structure (SMILES)
1,100.0,COC(=O)[C@H]1Cc2c([nH]c3ccccc23)[C@H](c2ccc(C(=O)O)cc2)N1C(=O)CCl [Compound 4]
2,100.0,COC(=O)[C@H]1Cc2c([nH]c3ccccc23)[C@H](c2ccc(C(=O)OC[C@]34C[C@H]5C[C@H](C[C@H](C5)C3)C4)cc2)N1C(=O)CCl [Compound 6]
3,100.0,CNC(=O)c1ccc([C@H]2c3[nH]c4ccccc4c3C[C@H](C(=O)OC)N2C(=O)CCl)cc1 [Compound 7]

# More lines, now with the values behind:
row,Structure (SMILES),Whole Blood Stability % Remaining at 37° C. Mouse [%]
1,O=C(O)c1ccc([C@H]2c3[nH]c4ccccc4c3C[C@H](C(=O)O)N2C(=O)CCl)cc1 [Compound 5],100.0
2,COC(=O)[C@H]1Cc2c([nH]c3ccccc23)[C@H](c2ccc(C(=O)N(C)C)cc2)N1C(=O)CCl [Compound 8],100.0

# Same assay, conditions: 30 min
row,Whole Blood Stability % Remaining at 37° C. Mouse [%],Structure (SMILES)
1,76.6,COC(=O)[C@H]1Cc2c([nH]c3ccccc23)[C@H](c2ccc(C(=O)O)cc2)N1C(=O)CCl [Compound 4]
2,12.4,COC(=O)[C@H]1Cc2c([nH]c3ccccc23)[C@H](c2ccc(C(=O)OC[C@]34C[C@H]5C[C@H](C[C@H](C5)C3)C4)cc2)N1C(=O)CCl [Compound 6]
3,68.2,CNC(=O)c1ccc([C@H]2c3[nH]c4ccccc4c3C[C@H](C(=O)OC)N2C(=O)CCl)cc1 [Compound 7]

# Second part, the molecule before the results:
row,Structure (SMILES),Whole Blood Stability % Remaining at 37° C. Mouse [%]
1,O=C(O)c1ccc([C@H]2c3[nH]c4ccccc4c3C[C@H](C(=O)O)N2C(=O)CCl)cc1 [Compound 5],86.3
2,COC(=O)[C@H]1Cc2c([nH]c3ccccc23)[C@H](c2ccc(C(=O)N(C)C)cc2)N1C(=O)CCl [Compound 8],53.0

# Same assay, conditions: 60 min
row,Whole Blood Stability % Remaining at 37° C. Mouse [%],Structure (SMILES)
1,63.9,COC(=O)[C@H]1Cc2c([nH]c3ccccc23)[C@H](c2ccc(C(=O)O)cc2)N1C(=O)CCl [Compound 4]
2,4.7,COC(=O)[C@H]1Cc2c([nH]c3ccccc23)[C@H](c2ccc(C(=O)OC[C@]34C[C@H]5C[C@H](C[C@H](C5)C3)C4)cc2)N1C(=O)CCl [Compound 6]
3,48.6,CNC(=O)c1ccc([C@H]2c3[nH]c4ccccc4c3C[C@H](C(=O)OC)N2C(=O)CCl)cc1 [Compound 7]

# Second part, the molecule before the results:
row,Structure (SMILES),Whole Blood Stability % Remaining at 37° C. Mouse [%]
1,O=C(O)c1ccc([C@H]2c3[nH]c4ccccc4c3C[C@H](C(=O)O)N2C(=O)CCl)cc1 [Compound 5],67.9
2,COC(=O)[C@H]1Cc2c([nH]c3ccccc23)[C@H](c2ccc(C(=O)N(C)C)cc2)N1C(=O)CCl [Compound 8],30.5

# System: not listed separately
# Test: Whole blood stability, human
# Type: in vitro ADME
# Details: 0 min
# Excerpt: as §2
row,Whole Blood Stability % Remaining at 37° C. Human [%],Structure (SMILES)
1,100.0,COC(=O)[C@H]1Cc2c([nH]c3ccccc23)[C@H](c2ccc(C(=O)O)cc2)N1C(=O)CCl [Compound 4]
2,100.0,COC(=O)[C@H]1Cc2c([nH]c3ccccc23)[C@H](c2ccc(C(=O)OC[C@]34C[C@H]5C[C@H](C[C@H](C5)C3)C4)cc2)N1C(=O)CCl [Compound 6]
3,100.0,CNC(=O)c1ccc([C@H]2c3[nH]c4ccccc4c3C[C@H](C(=O)OC)N2C(=O)CCl)cc1 [Compound 7]

# More lines, now with the values behind:
row,Structure (SMILES),Whole Blood Stability % Remaining at 37° C. Human [%]
1,O=C(O)c1ccc([C@H]2c3[nH]c4ccccc4c3C[C@H](C(=O)O)N2C(=O)CCl)cc1 [Compound 5],100.0
2,COC(=O)[C@H]1Cc2c([nH]c3ccccc23)[C@H](c2ccc(C(=O)N(C)C)cc2)N1C(=O)CCl [Compound 8],100.0

# Same assay, conditions: 30 min
row,Whole Blood Stability % Remaining at 37° C. Human [%],Structure (SMILES)
1,59.3,COC(=O)[C@H]1Cc2c([nH]c3ccccc23)[C@H](c2ccc(C(=O)O)cc2)N1C(=O)CCl [Compound 4]
2,54.8,COC(=O)[C@H]1Cc2c([nH]c3ccccc23)[C@H](c2ccc(C(=O)OC[C@]34C[C@H]5C[C@H](C[C@H](C5)C3)C4)cc2)N1C(=O)CCl [Compound 6]
3,60.1,CNC(=O)c1ccc([C@H]2c3[nH]c4ccccc4c3C[C@H](C(=O)OC)N2C(=O)CCl)cc1 [Compound 7]

# More lines, now with the values behind:
row,Structure (SMILES),Whole Blood Stability % Remaining at 37° C. Human [%]
1,O=C(O)c1ccc([C@H]2c3[nH]c4ccccc4c3C[C@H](C(=O)O)N2C(=O)CCl)cc1 [Compound 5],106.3
2,COC(=O)[C@H]1Cc2c([nH]c3ccccc23)[C@H](c2ccc(C(=O)N(C)C)cc2)N1C(=O)CCl [Compound 8],52.0

# Same assay, conditions: 60 min
row,Whole Blood Stability % Remaining at 37° C. Human [%],Structure (SMILES)
1,57.9,COC(=O)[C@H]1Cc2c([nH]c3ccccc23)[C@H](c2ccc(C(=O)O)cc2)N1C(=O)CCl [Compound 4]
2,33.0,COC(=O)[C@H]1Cc2c([nH]c3ccccc23)[C@H](c2ccc(C(=O)OC[C@]34C[C@H]5C[C@H](C[C@H](C5)C3)C4)cc2)N1C(=O)CCl [Compound 6]
3,44.5,CNC(=O)c1ccc([C@H]2c3[nH]c4ccccc4c3C[C@H](C(=O)OC)N2C(=O)CCl)cc1 [Compound 7]

# Continued, molecule first:
row,Structure (SMILES),Whole Blood Stability % Remaining at 37° C. Human [%]
1,O=C(O)c1ccc([C@H]2c3[nH]c4ccccc4c3C[C@H](C(=O)O)N2C(=O)CCl)cc1 [Compound 5],82.0
2,COC(=O)[C@H]1Cc2c([nH]c3ccccc23)[C@H](c2ccc(C(=O)N(C)C)cc2)N1C(=O)CCl [Compound 8],26.5
